Patent US20220389061A1, “IMMUNOMODULATORS” (priority 2019, published 2022)
Read-outs that look alike come from different tables or passages of the source. Starred links: 1 amine or outer side, 2 acyl side, 3 side chain; linkers in the order of their positions; H or OH if unused. Positions of bridges follow the written chain, without caps; N, C: chain ends. Non-standard residues stand in square brackets, D forms with d. Residues, ends and D or L forms follow the SMILES beside them. Groups on a side chain read outwards from the residue. *: point of attachment. Trp(1-CH2CO2Me) = COC(=O)Cn1cc(C[C@H](N)C(=O)O)c2ccccc21; Trp(1-CH2COOH) = N[C@@H](Cc1cn(CC(=O)O)c2ccccc12)C(=O)O; Acridine9carbonyl = O=C(c1c2ccccc2nc2ccccc12)*; X8 = NC(=O)c1c[nH]c2c(NC(=S)*)cccc12; X88 = Cc1cc([N+](=O)[O-])ccc1NC(=S)*; X68 = CC1(C)CCC(C)(C)c2cc(N*)ccc21; X50 = COc1cc(NC(=S)*)ccc1-c1cnco1; Hyp = O=C(O)[C@@H]1C[C@@H](O)CN1; X14 = Cc1c[nH]c2c(NC(=S)*)cccc12; X3 = S=C(Nc1ccc(Oc2ccccc2)cc1)*; X78 = S=C(Nc1c(Cl)cc(Cl)cc1Cl)*; NMeNle = CCCC[C@H](NC)C(=O)O; X85 = S=C(Nc1c(Cl)cccc1Cl)*; NMeA = CN[C@@H](C)C(=O)O; Dab = NCC[C@H](N)C(=O)O; Dap = NC[C@H](N)C(=O)O; X89 = O=C(Oc1ccccc1)*; CO = O=C([*:1])[*:2]

Target: T1, PD-1/PD-L1 (Homo sapiens, UniProt Q9NZQ7)
T1 construct: TVMV protease site linker (C); made in house; host or cells: HEK293T cells
Assay: PD-1/PD-L1 Homogenous Time-Resolved Fluorescence (HTRF) binding assay
How it was run: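 Compounds preincubated 15 min with PD-L1-His (10 nM final), then PD-1-Ig (20 nM final) added for 15 min in dPBS with 0.1% BSA, 0.05% Tween-20. Detection by Eu-cryptate anti-Ig (1 nM) and APC anti-His (20 nM) HTRF.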

[1] = PD-L1-His 10 nM pre-incubated with inhibitor, PD-1-Ig 20 nM, read-out: HTRF IC50

T1 sequence (Q9NZQ7 18-239): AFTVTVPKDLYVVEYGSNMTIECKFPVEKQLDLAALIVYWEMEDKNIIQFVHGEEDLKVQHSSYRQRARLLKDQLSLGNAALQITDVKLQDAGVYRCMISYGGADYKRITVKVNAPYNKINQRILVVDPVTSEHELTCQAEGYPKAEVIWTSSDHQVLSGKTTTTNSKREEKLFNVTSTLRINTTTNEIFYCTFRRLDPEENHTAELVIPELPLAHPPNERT

| Compound | IC50 [1] | IC50 |
| --- | --- | --- |
| CCCC[C@H]1C(=O)N(C)[C@@H](CCCC)C(=O)N[C@@H](CC(C)C)C(=O)N[C@H](C(=O)NCC(N)=O)CSCC(=O)N[C@@H](Cc2ccc(O)cc2)C(=O)N(C)[C@@H](C)C(=O)N[C@@H](CC(N)=O)C(=O)N2CCC[C@H]2C(=O)N[C@@H](CNC(=S)Nc2ccc([N+](=O)[O-])cc2C)C(=O)N[C@@H](CC(C)C)C(=O)N2C[C@H](O)C[C@H]2C(=O)N[C@@H](Cc2c[nH]c3ccccc23)C(=O)N[C@@H](CCN)C(=O)N[C@@H](Cc2cn(CC(=O)O)c3ccccc23)C(=O)N1C [Example 1072] ({CH2CO}-Y[NMeA]NP[Dap](X88)L[Hyp]W[Dab][Trp(1-CH2COOH)][NMeNle][NMeNle]LCG-NH2; thioether N-14) | 4.9 nM |  |
| CCCC[C@H]1C(=O)N(C)[C@@H](CCCC)C(=O)N[C@@H](CC(C)C)C(=O)N[C@H](C(=O)NCC(N)=O)CSCC(=O)N[C@@H](Cc2ccc(O)cc2)C(=O)N(C)[C@@H](C)C(=O)N[C@@H](CC(N)=O)C(=O)N2CCC[C@H]2C(=O)N[C@@H](CNC(=O)Oc2ccccc2)C(=O)N[C@@H](CC(C)C)C(=O)N2C[C@H](O)C[C@H]2C(=O)N[C@@H](Cc2c[nH]c3ccccc23)C(=O)N[C@@H](CCNC(=O)Oc2ccccc2)C(=O)N[C@@H](Cc2cn(CC(=O)OC)c3ccccc23)C(=O)N1C [Example 1013] ({CH2CO}-Y[NMeA]NP[Dap](X89)L[Hyp]W[Dab](X89)[Trp(1-CH2CO2Me)][NMeNle][NMeNle]LCG-NH2; thioether N-14) |  | 5.2 nM |
| CCCC[C@H]1C(=O)N(C)[C@@H](CCCC)C(=O)N[C@@H](CC(C)C)C(=O)N[C@H](C(=O)NCC(N)=O)CSCC(=O)N[C@@H](Cc2ccc(O)cc2)C(=O)N(C)[C@@H](C)C(=O)N[C@@H](CC(N)=O)C(=O)N2CCC[C@H]2C(=O)N[C@@H](CNC(=S)Nc2c(Cl)cc(Cl)cc2Cl)C(=O)N[C@@H](CC(C)C)C(=O)N2C[C@H](O)C[C@H]2C(=O)N[C@@H](Cc2c[nH]c3ccccc23)C(=O)N[C@@H](CCNC(=S)Nc2c(Cl)cc(Cl)cc2Cl)C(=O)N[C@@H](Cc2cn(CC(=O)O)c3ccccc23)C(=O)N1C [Example 1077] ({CH2CO}-Y[NMeA]NP[Dap](X78)L[Hyp]W[Dab](X78)[Trp(1-CH2COOH)][NMeNle][NMeNle]LCG-NH2; thioether N-14) | 5.7 nM |  |
| CCCC[C@H]1C(=O)N(C)[C@@H](CCCC)C(=O)N[C@@H](CC(C)C)C(=O)N[C@H](C(=O)NCC(N)=O)CSCC(=O)N[C@@H](Cc2ccc(O)cc2)C(=O)N(C)[C@@H](C)C(=O)N[C@@H](CC(N)=O)C(=O)N2CCC[C@H]2C(=O)N[C@@H](CNC(=S)Nc2ccc(-c3cnco3)c(OC)c2)C(=O)N[C@@H](CC(C)C)C(=O)N2C[C@H](O)C[C@H]2C(=O)N[C@@H](Cc2c[nH]c3ccccc23)C(=O)N[C@@H](CCN)C(=O)N[C@@H](Cc2cn(CC(=O)O)c3ccccc23)C(=O)N1C [Example 1028] ({CH2CO}-Y[NMeA]NP[Dap](X50)L[Hyp]W[Dab][Trp(1-CH2COOH)][NMeNle][NMeNle]LCG-NH2; thioether N-14) | 4.4 nM |  |
| CCCC[C@H]1C(=O)N(C)[C@@H](CCCC)C(=O)N[C@@H](CC(C)C)C(=O)N[C@H](C(=O)NCC(N)=O)CSCC(=O)N[C@@H](Cc2ccc(O)cc2)C(=O)N(C)[C@@H](C)C(=O)N[C@@H](CC(N)=O)C(=O)N2CCC[C@H]2C(=O)N[C@@H](CNC(=O)c2c3ccccc3nc3ccccc23)C(=O)N[C@@H](CC(C)C)C(=O)N2C[C@H](O)C[C@H]2C(=O)N[C@@H](Cc2c[nH]c3ccccc23)C(=O)N[C@@H](CCNC(=O)c2c3ccccc3nc3ccccc23)C(=O)N[C@@H](Cc2cn(CC(=O)OC)c3ccccc23)C(=O)N1C [Example 2003] ({CH2CO}-Y[NMeA]NP[Dap](Acridine9carbonyl)L[Hyp]W[Dab](Acridine9carbonyl)[Trp(1-CH2CO2Me)][NMeNle][NMeNle]LCG-NH2; thioether N-14) | 22.6 nM |  |

More lines, in order of falling IC50 [1], values ahead:

| IC50 [1] | Compound | IC50 |
| --- | --- | --- |
| 3.6 nM | CCCC[C@H]1C(=O)N(C)[C@@H](CCCC)C(=O)N[C@@H](CC(C)C)C(=O)N[C@H](C(=O)NCC(N)=O)CSCC(=O)N[C@@H](Cc2ccc(O)cc2)C(=O)N(C)[C@@H](C)C(=O)N[C@@H](CC(N)=O)C(=O)N2CCC[C@H]2C(=O)N[C@@H](CNC(=S)Nc2cccc3c(C(N)=O)c[nH]c23)C(=O)N[C@@H](CC(C)C)C(=O)N2C[C@H](O)C[C@H]2C(=O)N[C@@H](Cc2c[nH]c3ccccc23)C(=O)N[C@@H](CCN)C(=O)N[C@@H](Cc2cn(CC(=O)O)c3ccccc23)C(=O)N1C [Example 3017] ({CH2CO}-Y[NMeA]NP[Dap](X8)L[Hyp]W[Dab][Trp(1-CH2COOH)][NMeNle][NMeNle]LCG-NH2; thioether N-14) |  |
| 3.3 nM | CCCC[C@H]1C(=O)N(C)[C@@H](CCCC)C(=O)N[C@@H](CC(C)C)C(=O)N[C@H](C(=O)NCC(N)=O)CSCC(=O)N[C@@H](Cc2ccc(O)cc2)C(=O)N(C)[C@@H](C)C(=O)N[C@@H](CC(N)=O)C(=O)N2CCC[C@H]2C(=O)N[C@@H](CNC(=O)Nc2ccc3c(c2)C(C)(C)CCC3(C)C)C(=O)N[C@@H](CC(C)C)C(=O)N2C[C@H](O)C[C@H]2C(=O)N[C@@H](Cc2c[nH]c3ccccc23)C(=O)N[C@@H](CCN)C(=O)N[C@@H](Cc2cn(CC(=O)O)c3ccccc23)C(=O)N1C [Example 3046] ({CH2CO}-Y[NMeA]NP[Dap]([CO-X68])L[Hyp]W[Dab][Trp(1-CH2COOH)][NMeNle][NMeNle]LCG-NH2; thioether N-14) |  |
| 3.3 nM | CCCC[C@H]1C(=O)N(C)[C@@H](CCCC)C(=O)N[C@@H](CC(C)C)C(=O)N[C@H](C(=O)NCC(N)=O)CSCC(=O)N[C@@H](Cc2ccc(O)cc2)C(=O)N(C)[C@@H](C)C(=O)N[C@@H](CC(N)=O)C(=O)N2CCC[C@H]2C(=O)N[C@@H](CNC(=S)Nc2ccc(Oc3ccccc3)cc2)C(=O)N[C@@H](CC(C)C)C(=O)N2C[C@H](O)C[C@H]2C(=O)N[C@@H](Cc2c[nH]c3ccccc23)C(=O)N[C@@H](CCN)C(=O)N[C@@H](Cc2cn(CC(=O)O)c3ccccc23)C(=O)N1C [Example 1045] ({CH2CO}-Y[NMeA]NP[Dap](X3)L[Hyp]W[Dab][Trp(1-CH2COOH)][NMeNle][NMeNle]LCG-NH2; thioether N-14) |  |
| 2.5 nM | CCCC[C@H]1C(=O)N(C)[C@@H](CCCC)C(=O)N[C@@H](CC(C)C)C(=O)N[C@H](C(=O)NCC(N)=O)CSCC(=O)N[C@@H](Cc2ccc(O)cc2)C(=O)N(C)[C@@H](C)C(=O)N[C@@H](CC(N)=O)C(=O)N2CCC[C@H]2C(=O)N[C@@H](CNC(=S)Nc2cccc3c(C)c[nH]c23)C(=O)N[C@@H](CC(C)C)C(=O)N2C[C@H](O)C[C@H]2C(=O)N[C@@H](Cc2c[nH]c3ccccc23)C(=O)N[C@@H](CCN)C(=O)N[C@@H](Cc2cn(CC(=O)O)c3ccccc23)C(=O)N1C [Example 3020] ({CH2CO}-Y[NMeA]NP[Dap](X14)L[Hyp]W[Dab][Trp(1-CH2COOH)][NMeNle][NMeNle]LCG-NH2; thioether N-14) |  |
| 0.6 nM | CCCC[C@H]1C(=O)N(C)[C@@H](CCCC)C(=O)N[C@@H](CC(C)C)C(=O)N[C@H](C(=O)NCC(N)=O)CSCC(=O)N[C@@H](Cc2ccc(O)cc2)C(=O)N(C)[C@@H](C)C(=O)N[C@@H](CC(N)=O)C(=O)N2CCC[C@H]2C(=O)N[C@@H](CNC(=S)Nc2c(Cl)cccc2Cl)C(=O)N[C@@H](CC(C)C)C(=O)N2C[C@H](O)C[C@H]2C(=O)N[C@@H](Cc2c[nH]c3ccccc23)C(=O)N[C@@H](CCNC(=S)Nc2c(Cl)cccc2Cl)C(=O)N[C@@H](Cc2cn(CC(=O)O)c3ccccc23)C(=O)N1C [Example 1039] ({CH2CO}-Y[NMeA]NP[Dap](X85)L[Hyp]W[Dab](X85)[Trp(1-CH2COOH)][NMeNle][NMeNle]LCG-NH2; thioether N-14) |  |
